# Measurements from patent US20100256177A1, “Flavopereirine derivatives for cancer therapy” (priority 2004, published 2010).
# Key:
# Assay type in all cases: cell-based
# [1] = tested on: Hep2 (larynx) human tumor cell line; assay: three day MTT cytotoxicity assay, Hep2 larynx; conditions: 72 hours; for IC50 (μg/mL) of Flavoperereine derivatives in human tumor cell lines, Hep2 Larynx: Hep2 larynx cells
# Description: (§1) A number of the Flavopereirine derivatives were tested for cytotoxicity against nine (9) human tumor cell lines. Briefly, a three day MTT cytotoxicity assay was performed, which is based on the principle of uptake of MTT (3-(4,5-dimethylthiazol-2-yl)-2,5-diphenyl tetrazolium bromide), a tetrazolium salt, by the metabolically active cells where it is metabolized by active mitochondria into a blue colored formazan product that is read spectrophotometrically. MIT was dissolved in phosphate buffered saline with a pH of 7.4 to obtain an MTT concentration of 5 mg/ml; the resulting mixture was filtered through a 0.22-micron filter to sterilize and remove a small amount of insoluble residue. For each type of tumor cell, 10000 to 15000 cells were seeded in a 96-well culture plate and incubated with the individual Flavopereirine derivatives in concentration ranging from 1-20 μg/ml in a CO2 incubator for a total of 72 hours. Control cells not treated with the Flavopereirine derivatives were similarly incubated. The assay was terminated by adding 100 μg (20 μl) of MTT to each well, then incubating for additional one hour, and finally adding 50 μl of 10% SDS-0.01N HCl to each well to lyse the cells and dissolve formazan. After incubating for one hour, the plate was read spectrophotometrically at 540 nm and the percentage of cytotoxicity calculated using the following formula:
# (§2) Cytotoxicity percentage=100×[1-(X/R1)], where X=(absorbance of treated sample at 540 nm)−(absorbance of blank at 540 nm) R1=absorbance of control sample at 540 nm.
# (§3) The IC50 Values of the cytotoxicity defined as the concentration at which 50% of the cells are killed in vitro was calculated for each cell line treated with each of the Flavopereirine derivatives.
# (§4) The cell lines are ovary (PA-1), breast (MCF-7), prostate (DU145), pancreas (MiaPaCa.2), oral cavity (KB), lung (L132), colon (SW620), and larynx (HeP2).
# [2] = tested on: KB (oral cavity) human tumor cell line; assay: three day MTT cytotoxicity assay, KB oral; conditions: KB oral cells, 72 hours
# Description: as §1, §2, §3, §4
# [3] = tested on: PA1 (ovary) human tumor cell line; assay: three day MTT cytotoxicity assay, PA1 ovarian; conditions: PA1 ovarian cells, 72 hours
# Description: as §1, §2, §3, §4
# [4] = tested on: L132 (lung) human tumor cell line; assay: three day MTT cytotoxicity assay, L132 lung; conditions: L132 lung cells, 72 hours
# Description: as §1, §2, §3, §4
# [5] = tested on: SW620 (colon) human tumor cell line; assay: three day MTT cytotoxicity assay, SW620 colon; conditions: 72 hours; for IC50 (μg/mL) of Flavoperereine derivatives in human tumor cell lines, SW620 Colon: SW620 colon cells
# Description: as §1, §2, §3, §4
# [6] = tested on: ECV-304 (endothelial) cell line; assay: three day MTT cytotoxicity assay, ECV-304 endothelial; conditions: ECV-304 endothelial cells, 72 hours
# Description: as §1, §2, §3
# [7] = tested on: MiaPaca2 (pancreas) human tumor cell line; assay: three day MTT cytotoxicity assay, MiaPaca2 pancreas; conditions: 72 hours; for IC50 (μg/mL) of Flavoperereine derivatives in human tumor cell lines, MiaPaca2 Pancreas: MiaPaca2 pancreas cells
# Description: as §1, §2, §3, §4
# [8] = tested on: MCF7 (breast) human tumor cell line; assay: three day MTT cytotoxicity assay, MCF7 breast; conditions: MCF7 breast cells, 72 hours
# Description: as §1, §2, §3, §4
# [9] = tested on: DU145 (prostate) human tumor cell line; assay: three day MTT cytotoxicity assay, DU145 prostate; conditions: 72 hours; for IC50 (μg/mL) of Flavoperereine derivatives in human tumor cell lines, DU145 Prostate: DU145 prostate cells
# Description: as §1, §2, §3, §4
SMILES,"IC50 (μg/mL) of Flavoperereine derivatives in human tumor cell lines, Hep2 Larynx [1]","IC50 (μg/mL) of Flavoperereine derivatives in human tumor cell lines, KB Oral [2]","IC50 (μg/mL) of Flavoperereine derivatives in human tumor cell lines, PA1 Ovarian [3]","IC50 (μg/mL) of Flavoperereine derivatives in human tumor cell lines, L132 Lung [4]","IC50 (μg/mL) of Flavoperereine derivatives in human tumor cell lines, SW620 Colon [5]","IC50 (μg/mL) of Flavoperereine derivatives in human tumor cell lines, ECV-304 Endothelial [6]","IC50 ([7]; Homo sapiens, MIA PaCa-2, MiaPaca2 pancreas cells, read-out: IC50 (μg/mL) of Flavoperereine derivatives in human tumor cell lines, MiaPaca2 Pancreas)","IC50 ([1]; Homo sapiens, HEp-2, Hep2 larynx cells, read-out: IC50 (μg/mL) of Flavoperereine derivatives in human tumor cell lines, Hep2 Larynx)","IC50 ([8]; Homo sapiens, read-out: IC50 (μg/mL) of Flavoperereine derivatives in human tumor cell lines, MCF7 Breast)","IC50 ([2]; Homo sapiens, read-out: IC50 (μg/mL) of Flavoperereine derivatives in human tumor cell lines, KB Oral)","IC50 ([9]; Homo sapiens, DU-145, DU145 prostate cells, read-out: IC50 (μg/mL) of Flavoperereine derivatives in human tumor cell lines, DU145 Prostate)","IC50 ([3]; Homo sapiens, read-out: IC50 (μg/mL) of Flavoperereine derivatives in human tumor cell lines, PA1 Ovarian)","IC50 ([4]; Homo sapiens, read-out: IC50 (μg/mL) of Flavoperereine derivatives in human tumor cell lines, L132 Lung)","IC50 ([5]; Homo sapiens, SW-620, SW620 colon cells, read-out: IC50 (μg/mL) of Flavoperereine derivatives in human tumor cell lines, SW620 Colon)","IC50 ([6]; Homo sapiens, read-out: IC50 (μg/mL) of Flavoperereine derivatives in human tumor cell lines, ECV-304 Endothelial)","IC50 (μg/mL) of Flavoperereine derivatives in human tumor cell lines, MiaPaca2 Pancreas [7]","IC50 (μg/mL) of Flavoperereine derivatives in human tumor cell lines, MCF7 Breast [8]","IC50 (μg/mL) of Flavoperereine derivatives in human tumor cell lines, DU145 Prostate [9]"
"CCOc1ccc2c3[nH]c4ccccc4c3cc[n+]2c1 [Compound 29, 3-ethoxyindolor-2,3-alquinolizinium]",8.0 µg/mL,10 µg/mL,5 µg/mL,15 µg/mL,10 µg/mL,4 µg/mL,,,,,,,,,,,,
"C1=CC2=C3N=c4ccccc4=C3CCN2C=C1OCc1ccccc1 [Compound 23, 3-benzyloxy-6,7-dihydroindolo[2,3-a]quinolizine]",,,,,,,10 µg/mL,17 µg/mL,5 µg/mL,12 µg/mL,10 µg/mL,31 µg/mL,20 µg/mL,11 µg/mL,16 µg/mL,,,
Fc1ccc(COc2ccc3[n+](c2)CCc2c-3[nH]c3ccccc23)cc1.[O-][Cl+3]([O-])([O-])[O-] [Compound 25],44 µg/mL,8 µg/mL,36 µg/mL,9 µg/mL,44 µg/mL,24 µg/mL,,,,,,,,,,30 µg/mL,34 µg/mL,41 µg/mL
"Oc1ccc2[n+](c1)CCc1c-2[nH]c2ccccc12 [Compound 22, 3-hydroxy-6,7-dihydroindolo[2,3-a]quinolizinium]",>100 µg/mL,>100 µg/mL,>100 µg/mL,>100 µg/mL,>100 µg/mL,,,,,,,,,,,>100 µg/mL,>100 µg/mL,>100 µg/mL
CCCCOc1ccc2c3[nH]c4ccccc4c3cc[n+]2c1.[Br-] [Compound 33],2.4 µg/mL,1.6 µg/mL,<1 µg/mL,,1.4 µg/mL,,,,,,,,,,,2 µg/mL,3 µg/mL,5 µg/mL
CCCCOc1ccc2[n+](c1)CCc1c-2[nH]c2ccccc12.[Br-] [Compound 27],5 µg/mL,7 µg/mL,4.7 µg/mL,,4 µg/mL,,,,,,,,,,,7.5 µg/mL,6 µg/mL,9 µg/mL
BrCCCOc1ccc2c3[nH]c4ccccc4c3cc[n+]2c1.[O-][Cl+3]([O-])([O-])[O-] [Compound 30],1.5 µg/mL,10 µg/mL,2 µg/mL,10 µg/mL,6 µg/mL,6 µg/mL,,,,,,,,,,4 µg/mL,6 µg/mL,7.5 µg/mL
Brc1ccc(COc2ccc3[n+](c2)CCc2c-3[nH]c3ccccc23)cc1.[Br-] [Compound 26],24 µg/mL,6 µg/mL,>100 µg/mL,,>100 µg/mL,12 µg/mL,,,,,,,,,,9.5 µg/mL,>100 µg/mL,7.5 µg/mL
"CCOc1ccc2[n+](c1)CCc1c-2[nH]c2ccccc12 [Compound 24, 3-ethoxy-6,7-dihydroindolo[2,3-a]quinolizinium]",89 µg/mL,50 µg/mL,38 µg/mL,20 µg/mL,30 µg/mL,64 µg/mL,,,,,,,,,,,,
[Br-].c1ccc(COc2ccc3c4[nH]c5ccccc5c4cc[n+]3c2)cc1 [Compound 31],3 µg/mL,<1 µg/mL,4 µg/mL,4.5 µg/mL,5 µg/mL,13.5 µg/mL,,,,,,,,,,<1 µg/mL,4 µg/mL,4.5 µg/mL
Fc1ccc(COc2ccc3c4[nH]c5ccccc5c4cc[n+]3c2)cc1.[O-][Cl+3]([O-])([O-])[O-] [Compound 32],4 µg/mL,<1 µg/mL,6 µg/mL,<1 µg/mL,5 µg/mL,24 µg/mL,,,,,,,,,,<1 µg/mL,<1 µg/mL,2 µg/mL
"c1ccc(COc2ccc3c4[nH]c5ccccc5c4cc[n+]3c2)cc1 [Compound 28, 3-benzyloxyindolo[2,3-a]quinolizinium]",1.5 µg/mL,2 µg/mL,1.5 µg/mL,2 µg/mL,<1 µg/mL,4 µg/mL,,,,,,,,,,2 µg/mL,5 µg/mL,2 µg/mL
